Data: article PMC3220703, “Effects of DPP-4 Inhibitors on the Heart in a Rat Model of Uremic Cardiomyopathy” (PLoS ONE, 2011)

Columns and labels:
active GLP-1 = assay: Plasma active GLP-1 levels after linagliptin; assay type: in vivo, rat
Source text: Figure 5 Active GLP-1 levels in uremic vs sham animals. […] Following the last dose, plasma was taken after the time points indicated and active GLP-1 was detected. Values are given as mean ± SEM. N = 5 sham-operated, and 8-12 rats for 5/6N.
Active (uncleaved, 7–36 amide or 7–37) GLP-1 was detected using the commercially available Multi-Array Assay System (K150JWC) from Meso Scale Discovery following the instructions of the supplier.

[1] = cited from earlier work; for main elimination route: in words
5/6N rats = assay: Markers of kidney function before and after drug administration in 5/6N rats; assay type: in vivo, rat; settings: for effect on concentration of osteopontin: 4 days of treatment vs pre-treatment; for Osteopontin: mean±SEM
Method: Creatinine concentration was measured by the Jaffe colorimetric method. Creatinine clearance was estimated as described previously.
For each parameter, the log10-transformed values were analyzed separately using an ANOVA for repeated measurements with factors for experimental group and time as fixed effects. […] These statistical analyses were carried out with the software product SAS (SAS Institute, Cary, NC USA), version 9.2.

[2] = Pharmacokinetics: plasma AUC(0-∞) in sham-operated and 5/6N rats (HPLC-MS/MS); assay type: in vivo, rat; settings: day 4, mean±SEM; for AUC(0-inf): rat, plasma, po
Method: Sham-operated rats were divided into four control groups (N = 5–6 rats per group) in the same manner.
Chromatography for all assays was achieved on a Phenomenex Luna Phenyl-Hexyl 100A, 3 µm, 50×2 mm analytical HPLC column with gradient elution. The analytes were detected and quantified by HPLC-MS/MS using electrospray ionization in the positive ion mode.
Pharmacokinetic analysis was performed using non-compartmental methods with ToxKin V 3.5 (LogicaCMG ITS AG, Switzerland). The linear trapezoidal rule was used for AUC calculation. The terminal half-life (t(1/2)) was calculated as t(1/2) = ln2/λ(z) with the terminal elimination rate constant λ(z) as slope of the logarithmic-linear regression line lnC(t) = lnC(0 h) – λ(z) × t of two or three data points in the terminal phase. Extrapolated AUC(rest, tz-∞) was calculated according to Aronson et al, using the calculated concentration and time (t(z)) of the last measurable data point.

uremic rat heart = assay: Quantitative real-time PCR of BNP and fibrosis markers in uremic rat heart; assay type: in vivo; settings: 7 µmol/kg, 4 days; 5/6N rats; vs untreated 5/6N; in words
Method: Total RNA was extracted from 50 mg snap-frozen tissue by homogenization in peqGold Trifast reagent (Peqlab). Residual genomic DNA was removed with Turbo DNAse (Applied Biosystems). The RNA concentration and purity were assayed by spectrophotometry. First-strand cDNA synthesis was performed with random hexamer primer and 1 µg RNA using High Capacity cDNA Reverse Transcription Kit (Applied Biosystems) according to the manufacturer's instruction. (For further detail see Vinon-Zellweger et al.)
Sequences from the Ensemble database and the online available Primer3 software were used to create specific, intron-spanning primers for the target genes. […] Synthesized primers were obtained from Sigma-Aldrich®.
A total of 10 ng cDNA in 5 µl was normally used as template for amplification. An additional 0.5 µl of each primer (5 pmol) and 12.5 µl of Power SYBR Green PCR Master Mix (Applied Biosystems) were added and diluted with water to a volume of 25 µl. The PCR was performed on an Mx3000P thermal cycler (Stratagene). Reaction conditions were 95°C for 10 min, 40 cycles at 95°C for 15 sec, and 60°C for 60 sec, followed by an examination of the melting curve. All samples were analyzed in triplicate. The amplification efficiency of every reaction was checked with the linear regression method. Expression of the gene of interest was divided by the housekeeping gene, glyceraldehyde-3-phosphate dehydrogenase, and expressed as fold-change compared with the corresponding sham-operated rats group.

[3] = after (4 days + 72 h) administration, 7.0 µmol/kg
[4] = before drug administration, 7.0 µmol/kg group
[5] = vs pre-treatment values, in words
[6] = 7 umol/kg, 5/6N rats, 7 µmol/kg oral once daily
[7] = 7 umol/kg, sham-operated rats, 7 µmol/kg oral once daily

## CC#CCn1c(N2CCC[C@@H](N)C2)nc2c1c(=O)n(Cc1nc(C)c3ccccc3n1)c(=O)n2C [Linagliptin, linagliptin]
Active GLP-1; 7 μmol/kg, 5/6N
  GLP-1 AUC: 201 ng·h/L
Active GLP-1; 7 μmol/kg, sham
  GLP-1 AUC: 108 ng·h/L
Active GLP-1; 5/6N rats, linagliptin 7 µmol/kg daily for 4 days
  GLP-1 AUC: 201.0 ng·h/L
Active GLP-1; linagliptin 7 µmol/kg, p = 0.01
  increase in GLP-1 in 5/6N rats compared with sham-treated rats: 2 fold
Active GLP-1; sham rats, linagliptin 7 µmol/kg daily for 4 days
  GLP-1 AUC: 108.6 ng·h/L
[1]; oral
  eliminated via the urine: 1–5%
  elimination via the bile, share of the orally administered dose: approximately 85%
5/6N rats; 0.5 µmol/kg, p<0.001, in words
  effect on concentration of osteopontin: significantly reduced
5/6N rats; 7.0 µmol/kg, in words
  effect on concentration of osteopontin: did not reach statistical significance
5/6N rats; after (4 days + 72 h) administration, 0.5 µmol/kg
  Osteopontin: 48.1 ± 3.8 ng/mL
5/6N rats; [3]
  Osteopontin: 49.4 ± 10.7 ng/mL
5/6N rats; before drug administration, 0.5 µmol/kg group
  Osteopontin: 70.9 ± 4.7 ng/mL
5/6N rats; [4]
  Osteopontin: 54.2 ± 10.0 ng/mL
5/6N rats; [5]
  change of cystatin C following 4 days of treatment: trend toward decreasing
[2]; 5/6N rats, 7 µmol/kg oral once daily
  AUC(0-∞): 0.7482 ± 0.07452 µM·h
[2]; 0.5 umol/kg, 5/6N rats, 0.5 µmol/kg oral once daily
  AUC(0-inf): 0.258 ± 0.0214 µM·h
[2]; 0.5 umol/kg, sham-operated rats, 0.5 µmol/kg oral once daily
  AUC(0-inf): 0.267 ± 0.0289 µM·h
[2]; [6]
  AUC(0-inf): 1.25 ± 0.373 µM·h
[2]; [7]
  AUC(0-inf): 0.748 ± 0.0745 µM·h
[2]; sham-operated rats, 7 µmol/kg oral once daily
  AUC(0-∞): 1.252 ± 0.3788 µM·h
Uremic rat heart
  mRNA expression of BNP in uremic rat heart: significantly reduced
  mRNA expression of Col1α1 in uremic rat heart: significantly inhibited
  mRNA expression of Col3α1 in uremic rat heart: significantly inhibited
  mRNA expression of TGF-β1 in uremic rat heart: significantly inhibited
  mRNA expression of TIMP-1 in uremic rat heart: significantly inhibited

## N#C[C@@H]1CCCN1C(=O)CNC12CC3CC(CC(O)(C3)C1)C2 [vildagliptin]
[1]
  main elimination route: via the kidney

## Cn1c(=O)cc(N2CCC[C@@H](N)C2)n(Cc2ccccc2C#N)c1=O [Alogliptin, alogliptin]
5/6N rats; 7.0 µmol/kg, in words
  effect on concentration of osteopontin: significantly reduced
5/6N rats; [3]
  Osteopontin: 39.1 ± 8.8 ng/mL
5/6N rats; [5]
  change of cystatin C following 4 days of treatment: significantly increased
[2]; [6]
  AUC(0-inf): 2.44 ± 0.167 µM·h
[2]; [7]
  AUC(0-inf): 1.77 ± 0.226 µM·h

## N[C@@H](CC(=O)N1CCn2c(nnc2C(F)(F)F)C1)Cc1cc(F)c(F)cc1F [Sitagliptin, sitagliptin]
[1]
  main elimination route: via the kidney
5/6N rats; 7.0 µmol/kg, in words
  effect on concentration of osteopontin: significantly reduced
5/6N rats; [3]
  Osteopontin: 33.4 ± 2.4 ng/mL
5/6N rats; [4]
  Osteopontin: 48.5 ± 4.4 ng/mL
5/6N rats; [5]
  change of cystatin C following 4 days of treatment: unchanged
  change of β2-microglobulin concentration following 4 days of treatment: increasing the concentration of β2-microglobulin
[2]; [6]
  AUC(0-inf): 6.24 ± 0.423 µM·h
[2]; [7]
  AUC(0-inf): 3.69 ± 0.103 µM·h
